How the values were obtained:
R6/2 mice [1] = assay: Survival of R6/2 transgenic mice treated with PNA; type: in vivo, mouse
Description: Cannulation and microsurgery—Method 2: Pump cannulas were prepared 48 hours before surgery. For adaptation to mice, Alzet pump cannulas were ground to a length of 2 mm. The cannulas then were sterilized by gas ozonation. Mice were anesthetized via i.p. injection with 100 mg/kg of a ketamine/xylazine solution containing 8 mg/mL ketamine and 1 mg/mL xylazine in 0.9% saline. Once anesthetized, each mouse was cannulated. Each anesthetized mouse was placed in a Stoelting Stereotaxic Frame with a mouse adapter (Stoelting Instruments). An incision was made using a scalpel, and the skin and tissue were pulled back with swabs to reveal the skull. The cannulation site was positioned for optimum access to the ventricle, at coordinates AP −0.2 mm, Horiz −1 mm from bregma. A cannula entry port and two bone screw ports were opened in the skull using a Dremel Flex Shaft Drill (Stoelting Instruments) with a 2.1 mm burr. The cannula was lowered into place and affixed using Loctite 454 (Loctite Corp., Avon, Ohio). An Alzet Mini-Osmotic Pump was inserted into a pouch beneath the skin and attached to the cannula with silastic tubing. The wound was closed using wound clips and the animal was allowed to recuperate.
Delivery of PNA oligomer solutions: All handling of tubing and cannulas was done under sterile conditions. PNA solutions at the correct concentrations were diluted in artificial cerebrospinal fluid (ACSF; 147 mM NaCl, 4.02 mM KCl, 1.2 mM CaCl2, pH 7.5) and then filtered for delivery. As a control, ACSF containing no PNA was delivered.
(§1) Experiments were conducted to determine whether PNA-mediated inhibition of mutant huntingtin expression increased survival and/or reversed features of pathophysiology. R6/2 and non-transgenic mice were divided into two groups of three to five mice each, and treated with either HDs or ACSF for approximately ten weeks, beginning at five to six weeks of age. Treated animals received a dose of 0.15 mg/kg of the HDs PNA oligomer, administered by continuous infusion through an Alzet pump. All ACSF-treated transgenic mice died by three months of age.
(§2) In other experiments, R6/2 mice were divided into five groups (designated groups 1-5) containing eight to ten animals each. Groups 1-4 received either saline (group 1) or a specific amount of HDs (groups 2-4). Group 5 included untreated R6/2 mice. A sixth group included untreated non-transgenic B6CBA control mice. At 8 weeks of age, each mouse was weighed to establish a weight stability baseline. Baselines for clasping behavior, motility, and motor skill were established at 9 weeks of age using the methods described in Example 1.
(§3) At 9 weeks of age, the mice in each group received saline (group 1) or HDs at 2.0 mg/kg, 5.0 mg/kg, or 20.0 mg/kg (groups 2, 3, and 4, respectively) by i.p. injection every 48 hours. The injections continued through 13 weeks of age (i.e., treatment for […]). Weight stability, clasping behavior, motility, and motor skill were assessed weekly during the treatment period. At the time of death or after the treatment period, the brain of each mouse was removed using standard methods. The brains were divided into hemispheres, and one hemisphere of each brain was saved for protein and mRNA analysis. The remaining hemispheres were fixed directly in 10% formalin for 5-7 days. After fixing, the brain hemispheres were weighed individually and processed for sectioning and pathophysiology.

R6/2 mice [2] = assay: Open field test to assess motility; type: in vivo, mouse; details: for level of motility (open field test): R6/2 mice
Description: Open field test to assess motility: Each mouse was confined for 10 minutes in a Plexiglas locomotion chamber equipped with a laser source and detector. As the mouse passed between the laser source and detector, the laser beam was “broken” and the event was automatically recorded. The number of beam breaks for B6CBA mice treated with the HDs PNA oligomer was compared to that of saline-treated or untreated control B6CBA mice. This number was directly related to general activity of the mice.
as §1, §2, §3

mice = assay: Toxicity observation (behavior, weight, motor function) during intraventricular PNA treatment; type: in vivo; details: 1.0 μL (25 μg/μL) into the ventricle every other day
Description: Animal treatment and tissue preparation: Aliquots of 1.0 μL (25 μg/μL) of a PNA oligomer specific for the expanded human HD allele (HDs) or a scrambled control PNA (HDscr) were administered into the ventricle every other day by injection via the cannula.

R6/2 mice [3] = assay: Body weight of treated R6/2 mice; type: in vivo, mouse
Description: as §1, §2
At 9 weeks of age, the mice in each group received saline (group 1) or HDs at 2.0 mg/kg, 5.0 mg/kg, or 20.0 mg/kg (groups 2, 3, and 4, respectively) by i.p. injection every 48 hours. […] Weight stability, clasping behavior, motility, and motor skill were assessed weekly during the treatment period. […]

[4] = surviving R6/2 mice, 0.15 mg/kg continuous infusion by Alzet pump

HDs: sense PNA oligomer, 14 residues, 5′-GGACTGCCGTGCCG-3′ (SEQ ID NO:3), specific for the expanded human HD allele (all peptide nucleic acid (PNA))
survival of longest-surviving treated animal (one of three) (R6/2 mice [1]; 0.15 mg/kg continuous infusion by Alzet pump): still alive and healthy at six months of age | survival (R6/2 mice [1]; 0.15 mg/kg continuous infusion by Alzet pump, about ten weeks from five to six weeks of age, ACSF-treated all died by three months): improved survival | mice alive at 13 weeks of age (R6/2 mice [1]; 2.0 mg/kg i.p. every 48 hours from 9 weeks of age): None | mice alive at 13 weeks of age (R6/2 mice [1]; 5.0 mg/kg i.p. every 48 hours from 9 weeks of age): 50% | mice alive at 13 weeks of age (R6/2 mice [1]; 20.0 mg/kg i.p. every 48 hours from 9 weeks of age): 20% | level of motility (open field test) (R6/2 mice [2]; 2.0 mg/kg i.p. every 48 hours, compared to untreated R6/2 mice): no difference in motility | level of motility (open field test) (R6/2 mice [2]; 5.0 mg/kg i.p. every 48 hours, lower than nontransgenic controls): increased as compared to untreated R6/2 mice | level of motility (open field test) (R6/2 mice [2]; 20.0 mg/kg i.p. every 48 hours, lower than nontransgenic controls): increased as compared to untreated R6/2 mice | motility as compared to non-transgenic animals (R6/2 mice [2]; [4]): decline in motility | toxicity as measured by weight or motor function relative to untreated animals (mice): no effects of toxicity | weight stability over the treatment period (R6/2 mice [3]; R6/2 mice, 5.0 mg/kg i.p. every 48 hours, compared to 2.0 mg/kg or 20.0 mg/kg): more stable weight | body weight over time (R6/2 mice [3]; [4]): continued to gain weight over time

Reference: patent US20040009899A1, “Treating dominant disorders” (priority 2002, published 2004)
